# Experimental data taken from patent publication US11731977B2, “SGC stimulators” (Cyclerion Therapeutics, Inc., priority 2016, dated 2023).
# Columns and labels:
# [1] = test system: R6/2 mice hippocampal slices; assay: Synaptic transmission and plasticity (LTP) in R6/2 mice hippocampal slices (Example 8); design: species or system mouse; details: R6/2 slices
# Description: Improvements in synaptic transmission and plasticity, as measured by long term potentiation (LTP), is believed to indicate the potential of a compound to enhance memory. LTP is an electrophysiological phenomena that is commonly referred to as the a cellular phenomenon driving learning and memory.
# Preparation of acute mice hippocampal slices. Experiments were carried out with 11 to 12 week-old R6/2 and WT mice provided by the Jackson Laboratory (USA). Hippocampal slices (350 μm thickness) were cut with a Macllwain tissue chopper in an ice-cold oxygenated sucrose solution (Saccharose 250, Glucose 11, NaHCO3 26, KCl 2, NaH2PO4 1.2, MgCl2 7, and CaCl2 0.5 in mM). The slices were incubated 1 hour at room temperature in ACSF of the following composition: Glucose 11, NaHCO3 25, NaCl 126, KCl 3.5, NaH2PO4 1.2, MgCl2 1.3, and CaCl2 2 in mM. Then, the slices were let to recover for at least 1 h.
# Slice perfusion and temperature control. During the experiments, the slices were continuously perfused with the ACSF (bubbled with 95% O2-5% CO2) at the rate of 3 mL/min with a peristaltic pump (MEA chamber volume: ˜1 mL). Complete solution exchange in the MEA chamber was achieved 20 s after the switch of solutions. The perfusion liquid was continuously pre-heated at 37° C. just before reaching the MEA chamber with a heated-perfusion cannula (PH01, Multichannel Systems, Reutlingen, Germany). The temperature of the MEA chamber was maintained at 37±0.1° C. with a heating element located in the MEA amplifier headstage.
# Input/Output (I/O)curve: from 100 to 800 μA, by 100 μA steps. The stimulus intensity was then set to a fixed value of 250 μA for the short- and long-term synaptic plasticity measurements.
# Short-term plasticity properties: two pulses with a decreasing inter-stimuli interval (e.g. 300 ms, 200 ms, 100 ms, 50 ms, 25 ms) were applied. Compound application: fEPSP were recorded for 10 minutes in control conditions (to verify the baseline steadiness) followed by a 15-minute exposure to the compound (or 25 minutes in the presence of vehicle only for control slices). A second I/O protocol and paired-pulse protocol were applied, as described previously, in the continuous presence of the compound.
# Long-Term Potentiation (LTP); Following a 10-minute control period (in the presence of the compound or vehicle for control slices), LTP was induced by a 10×TBS. Potentiation of synaptic transmission was then monitored for an additional 60-minute period (in the continuous presence of the compound or vehicle for control slices).
# [2] = test system: male Long Evans rats; assay: Novel Object Recognition (NOR) test, MK-801-induced memory disruption (Example 10); assay type: in vivo, rat; details: for reversal of MK-801-induced memory deficits (Recognition Index): Galantamine 1 mg/kg, vs Vehicle/MK-801; for Recognition Index, Mean: 0 to 3 minute time bin
# From the text: Objective. To assess the efficacy of compounds of the invention in reversing memory disruption induced by MK-801 using the Novel Object Recognition (NOR) test in male Long Evans rats. The NOR is a test of recognition learning and memory retrieval, which takes advantage of the spontaneous preference of rodents to investigate a novel object compared with a familiar one (Ennaceur and Delacour, 1988). […] The NOR test has been employed extensively to assess the potential cognitive-enhancing properties of novel test compounds. […] In the present study, a memory saving model was used to test the novel compound—MK-801 (Dizocilpine), an uncompetitive antagonist of the NMD A receptor was used to cause deficit of recognition memory. Compounds of the invention were evaluated through its efficacy in reversing memory impairment.
# Animals. Adult male Long-Evans rats (275-299 gram at arrival from Envigo, Indianapolis, Ind.) were used in this study. Rats were placed in the experimental rooms and assigned unique identification numbers (tail marks). Rats were housed 2 per cage in polycarbonate cages with filter tops and acclimated for at least 7 days prior to testing. Animal room was maintained in a 12/12 h light/dark cycle (lights on at 07.00 EST), 22±1° C. and relative humidity at approximately 50%. Food and water were provided ad libitum. All animals were examined, handled and weighed prior to the study to assure adequate health and to minimize the non-specific stress associated with testing. Each animal was randomly assigned across the treatment groups. The experiments were conducted during the animal's light cycle phase.
# MK-801 (0.1 mg/kg; Sigma-Aldrich) was dissolved in saline and injected IP 15 min prior to NOR training.
# Galantamine (1 mg/kg; Tocris) was dissolved in saline and injected IP 15 minutes prior to training.
# Compound I-1 (0.01, 0.1, and 1 mg/kg) was oral administrated 60 minutes prior to training. The dose volume was 4 ml/kg
# Experimental procedures. NOR test was conducted in an open-field arena (40×40 cm) placed in a sound-attenuated room under dimmed lighting. Each rat was tested separately and care was taken to remove olfactory/taste cues by cleaning the arena and test objects with 70% alcohol between trials and rats. All training and testing trials were video-taped and scored by an observer blind to treatments.
# On Days 1 and 2, rats were allowed to freely explore the arena (no objects inside) for a 5-minute habituation period. On Day 3 (training and testing day), rats were administered vehicle (saline), galantamine or compound solutions followed by MK-801 or vehicle (saline). After the pretreatment time, each animal was placed into the test arena in the presence of two identical objects. Each rat was placed in the arena facing the same direction at the same position, and the time spent actively exploring the objects during a 3-minute training period (T1) was recorded. The rat was returned to its home cage following training. NOR test (T2) was conducted 1 hours after T1. Each rat was placed back into the test arena in the presence of one familiar object and one novel object for 5 minutes, and the time spent exploring both objects was recorded during 0-1, 0-3 and 0-5 min time ranges. The presentation order and position of the objects (left/right) in T2 was randomized between rats to prevent bias from order or place preference.
# Statistical Analysis. Data of NOR test (T2) were expressed as Recognition Index, which is defined as the ratio of the time spent exploring the novel object over the total time spent exploring both objects (Novel/(Familiar+Novel)×100%) during the test session. Data were analyzed by using one-way ANOVA followed by Fisher's LSD post hoc test on 0-1, 0-3 and 0-5 minute time range separately, with significance set at P<0.05. […] And then statistical outliers that fell above or below two standard deviations from the mean were removed from the final analysis. […]
# [3] = test system: rats; assay: Acute and tonic pain: healthy rats, paw pressure test (Example 13); details: Compound I-1 p.o. 10 mg/kg, 120 minutes after treatment
# Description: Paw Pressure Test. Static mechanical hyperalgesia is measured. This test requires the application of an increasing pressure on the hind paws between a flat surface and a blunt pointer. To evaluate the analgesic action of a compound, one hind paw of the animal was inflamed by an injection or injured by ligation, while the other hind paw was not injured or inflamed. The apparatus exerted a steadily increasing force on the hind paws. The reaction threshold was determined as the pressure (g) required to elicit paw withdrawal and/or vocalization. The animals were gently handled by the experimenter and static mechanical hyperalgesia were assessed two times for both hind paws.
# Testing: 120 minutes after treatment. N=4/model/test. Results are expressed for each group as a percentage of activity calculated from the mean value of the vehicle-treated animals and compared to naïve animals, control paw, or cut-off value, depending on the test.
compound,measurement,setting,value
"Fc1ccccc1Cc1nc(-c2nc(C(F)(F)F)n[nH]2)cn2ccnc12 [Compound I-1, 8-(2-fluorobenzyl)-6-(3-(trifluoromethyl)-1H-1,2,4-triazol-5-yl)imidazo[1,2-a]pyrazine]","potentiation of the evoked-response amplitudes, stabilized level",[1]; 7 nM,around 25%
same,rescue of LTP impairment,[1]; 7 nM,failed to significantly rescue
same,fEPSP increase at endpoint after HFS (LTP),"[1]; 7 nM (R6/2 control 16±3%, WT 46±5%)",26±6%
same,"effect on short-term plasticity properties (paired pulses, 25 ms to 300 ms ISI)","[1]; 7 nM, 46 nM or 308 nM, exception 308 nM at 50 ms ISI","None of the evaluated Compound I-1 concentrations (7 nM, 46 nM or 308 nM) displayed a significant effect"
same,effect on overall I/O characteristics,"[1]; 7 nM, 46 nM, 308 nM",none of the 3 concentrations displayed a significant effect
same,"potentiation of the evoked-response amplitudes, stabilized level",[1]; 46 nM,around 45%
same,fEPSP increase at endpoint after HFS (LTP),"[1]; 46 nM (R6/2 control 16±3%, WT 46±5%)",44±12%
same,rescue of LTP impairment,[1]; 46 nM and 308 nM,completely restored the LTP deficit
same,"potentiation of the evoked-response amplitudes, stabilized level",[1]; 308 nM,around 35%
same,fEPSP increase at endpoint after HFS (LTP),"[1]; 308 nM (R6/2 control 16±3%, WT 46±5%)",37±9%
same,reversal of MK-801-induced memory deficits (Recognition Index),"[2]; 0-1 min time range, Compound I-1 1 mg/kg",significantly reversed
same,reversal of MK-801-induced memory deficits (Recognition Index),"[2]; 0-3 minute time range, Compound I-1 0.1 and 1 mg/kg",significantly reversed
same,reversal of MK-801-induced memory deficits (Recognition Index),"[2]; 0-5 minute time range, Compound I-1 1 mg/kg",significantly reversed
same,"Recognition Index, Mean",[2]; I-1 (0.1 mg/kg) oral + MK-801,60.1%
same,"Recognition Index, Mean",[2]; I-1 (1 mg/kg) oral + MK-801,64.8%
same,"Recognition Index, Mean",[2]; I-1 (10 mg/kg) oral + MK-801,66.8%
same,% of activity vs. vehicle,[3],−6%
